Source: ChEMBL document CHEMBL5705899 (Biochem J, 2014)
Activity calls are given as the source filed them. No cut-off for these calls is given here.

What was measured:
[1] = target: Homeodomain-interacting protein kinase 3 (Homo sapiens) (UniProt Q9H422); assay: (§1) Inhibition of recombinant human N-terminal GST-tagged HIPK3 (161 to 562 residues) expressed in Escherichia coli assessed as remaining activity at 1 uM using MBP as substrate incubated for 30 mins in presence of [gamma-33P]ATP by filter binding method relative to control
[2] = target: Serine/threonine-protein kinase MARK2 (Homo sapiens) (UniProt Q7KZI7); assay: as §1, with “His6-tagged MARK2 (2” for “GST-tagged HIPK3 (161”, “691” for “562”, “baculovirus infected Sf21 cells” for “Escherichia coli”, “KKKVSRSGLYRSPSMPENLNRPR” for “MBP”
[3] = target: Phosphorylase b kinase gamma catalytic chain, skeletal muscle/heart isoform (Homo sapiens) (UniProt Q16816); assay: Inhibition of recombinant human N-terminal GST-tagged PHKgamma1 (2 to 297 residues) expressed in Escherichia coli assessed as remaining activity at 1 uM using phosphorylase b peptide as substrate incubated for 30 mins in presence of [gamma-33P]ATP by filter binding method relative to control
[4] = target: Serine/threonine-protein kinase Chk2 (Homo sapiens) (UniProt O96017); assay: Inhibition of recombinant human N-terminal GST/C-terminal His6-tagged CHK2 (5 to 543 residues) expressed in Escherichia coli assessed as remaining activity at 1 uM using CHKtide as substrate incubated for 30 mins in presence of [gamma-33P]ATP by filter binding method relative to control
[5] = target: Mitogen-activated protein kinase 10 (Homo sapiens) (UniProt P53779); assay: Inhibition of recombinant human N-terminal GST/C-terminal His6-tagged JNK3 (40 to 422 residues) expressed in Escherichia coli assessed as remaining activity at 1 uM using ATF2 as substrate incubated for 30 mins in presence of [gamma-33P]ATP by filter binding method relative to control
[6] = target: Receptor-interacting serine/threonine-protein kinase 2 (Homo sapiens) (UniProt O43353); assay: Inhibition of recombinant human N-terminal GST-tagged RIPK2 (2 to 311 residues) expressed in baculovirus infected Sf21 cells assessed as remaining activity at 1 uM using MBP as substrate incubated for 30 mins in presence of [gamma-33P]ATP by filter binding method relative to control
[7] = target: Mitogen-activated protein kinase 15 (Homo sapiens) (UniProt Q8TD08); assay: Inhibition of recombinant human N-terminal His6-tagged ERK8 (2 to 544 residues) expressed in baculovirus infected Sf21 cells assessed as remaining activity at 1 uM using MBP as substrate incubated for 30 mins in presence of [gamma-33P]ATP by filter binding method relative to control
[8] = target: Ephrin type-B receptor 4 (Homo sapiens) (UniProt P54760); assay: Inhibition of human EPHB4 at 1 uM using polyEY as substrate in presence of 33P-ATP by ProQinase assay
[9] = target: Protein-tyrosine kinase 6 (Homo sapiens) (UniProt Q13882); assay: Inhibition of human BRK at 1 uM using polyEy as substrate in presence of 33P-ATP by ProQinase assay
[10] = target: Epidermal growth factor receptor (Homo sapiens) (UniProt P00533); assay: Inhibition of human EGFR at 1 uM using RBER-CHKtide as substrate in presence of 33P-ATP by ProQinase assay
[11] = target: Protein kinase C beta type (Homo sapiens) (UniProt P05771); assay: Inhibition of human PKCbeta2 at 1 uM using 3xChocktide-PKC as substrate in presence of 33P-ATP by ProQinase assay
[12] = target: Rho-associated protein kinase 1 (Homo sapiens) (UniProt Q13464); assay: Inhibition of human ROCK1 at 1 uM using 3xChocktide-PKC as substrate in presence of 33P-ATP by ProQinase assay
[13] = target: Inhibitor of nuclear factor kappa-B kinase subunit epsilon (Homo sapiens) (UniProt Q14164); assay: Inhibition of human IKKepsilon at 1 uM using RBER-GSK3 as substrate in presence of 33P-ATP by ProQinase assay
[14] = target: NUAK family SNF1-like kinase 2 (Homo sapiens) (UniProt Q9H093); assay: Inhibition of human SNARK at 1 uM using histone H2B as substrate in presence of 33P-ATP by ProQinase assay
[15] = target: Serine/threonine-protein kinase B-raf (Homo sapiens) (UniProt P15056); assay: Inhibition of human BRAF at 1 uM using MEK1-K97M as substrate in presence of 33P-ATP by ProQinase assay
[16] = target: Activin receptor type-1B (Homo sapiens) (UniProt P36896); assay: Inhibition of human ACVR1B at 1 uM using RBER-CHKtide as substrate in presence of 33P-ATP by ProQinase assay
[17] = target: Serine/threonine-protein kinase 24 (Homo sapiens) (UniProt Q9Y6E0); assay: Inhibition of human MST3 at 1 uM using casein as substrate in presence of 33P-ATP by ProQinase assay
[18] = target: Serine/threonine-protein kinase PAK 2 (Homo sapiens) (UniProt Q13177); assay: Inhibition of human PAK2 at 1 uM using bio-4xCHKT as substrate in presence of 33P-ATP by ProQinase assay
[19] = target: Cyclin-dependent kinase 5/CDK5 activator 1 (Homo sapiens) (UniProt Q00535+Q15078); assay: Inhibition of human CDK5/p25NCK at 1 uM using RBER-CHKtide as substrate in presence of 33P-ATP by ProQinase assay; assay type: protein-complex assay
[20] = target: Mitogen-activated protein kinase kinase kinase 9 (Homo sapiens) (UniProt P80192); assay: Inhibition of human MAP3K9 at 1 uM using RBER-GSK3 as substrate in presence of 33P-ATP by ProQinase assay
[21] = target: Mitogen-activated protein kinase 1 (Homo sapiens) (UniProt P28482); assay: Inhibition of human ERK2 at 1 uM using RBER-CHKtide as substrate in presence of 33P-ATP by ProQinase assay
[22] = target: Dual specificity protein kinase CLK2 (Homo sapiens) (UniProt P49760); assay: Inhibition of human CLK2 at 1 uM using RBER-GSK3 as substrate in presence of 33P-ATP by ProQinase assay
[23] = target: PI3-kinase p110-alpha/p85-alpha (Homo sapiens) (UniProt P27986+P42336); assay: Inhibition of recombinant human N-terminal His6-tagged PI3Kalpha (2 to 1068 residues)/p85A (1 to 724 residues) expressed in baculovirus expression system at 1 uM using diC8 PIP2 as substrate incubated for 80 mins by ADP-Glo assay
[24] = target: Phosphatidylinositol 4-kinase beta (Homo sapiens, UniProt Q9UBF8); assay: Inhibition of recombinant human N-terminal His6-tagged PIK4Cbeta (1 to 801 residues) expressed in baculovirus expression system at 1 uM using […] as substrate incubated for 45 mins by ADP-Glo assay
[25] = target: Phosphatidylinositol 3-kinase C2 domain-containing subunit gamma (Homo sapiens) (UniProt O75747); assay: Inhibition of PI3KC2gamma (unknown origin) at 1 uM

Cyclin-dependent kinase 5/CDK5 activator 1 (Homo sapiens), sequence (Q00535 whole entry): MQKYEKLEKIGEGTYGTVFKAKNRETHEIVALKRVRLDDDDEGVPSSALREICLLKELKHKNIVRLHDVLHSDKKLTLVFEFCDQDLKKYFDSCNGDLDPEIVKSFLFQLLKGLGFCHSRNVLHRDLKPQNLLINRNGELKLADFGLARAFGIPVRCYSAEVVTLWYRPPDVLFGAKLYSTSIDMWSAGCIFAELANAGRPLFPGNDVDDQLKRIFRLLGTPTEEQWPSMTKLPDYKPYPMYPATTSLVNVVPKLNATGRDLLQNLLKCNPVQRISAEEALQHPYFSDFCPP
Cyclin-dependent kinase 5/CDK5 activator 1 (Homo sapiens), sequence (Q15078 99-307 partner limits assumed): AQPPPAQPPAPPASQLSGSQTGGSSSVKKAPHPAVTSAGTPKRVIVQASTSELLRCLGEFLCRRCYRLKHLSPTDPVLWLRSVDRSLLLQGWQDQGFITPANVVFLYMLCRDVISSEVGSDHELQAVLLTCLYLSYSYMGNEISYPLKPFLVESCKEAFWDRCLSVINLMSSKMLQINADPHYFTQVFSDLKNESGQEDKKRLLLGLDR
Protein kinase C beta type (Homo sapiens), sequence (P05771 2-671 limits assumed): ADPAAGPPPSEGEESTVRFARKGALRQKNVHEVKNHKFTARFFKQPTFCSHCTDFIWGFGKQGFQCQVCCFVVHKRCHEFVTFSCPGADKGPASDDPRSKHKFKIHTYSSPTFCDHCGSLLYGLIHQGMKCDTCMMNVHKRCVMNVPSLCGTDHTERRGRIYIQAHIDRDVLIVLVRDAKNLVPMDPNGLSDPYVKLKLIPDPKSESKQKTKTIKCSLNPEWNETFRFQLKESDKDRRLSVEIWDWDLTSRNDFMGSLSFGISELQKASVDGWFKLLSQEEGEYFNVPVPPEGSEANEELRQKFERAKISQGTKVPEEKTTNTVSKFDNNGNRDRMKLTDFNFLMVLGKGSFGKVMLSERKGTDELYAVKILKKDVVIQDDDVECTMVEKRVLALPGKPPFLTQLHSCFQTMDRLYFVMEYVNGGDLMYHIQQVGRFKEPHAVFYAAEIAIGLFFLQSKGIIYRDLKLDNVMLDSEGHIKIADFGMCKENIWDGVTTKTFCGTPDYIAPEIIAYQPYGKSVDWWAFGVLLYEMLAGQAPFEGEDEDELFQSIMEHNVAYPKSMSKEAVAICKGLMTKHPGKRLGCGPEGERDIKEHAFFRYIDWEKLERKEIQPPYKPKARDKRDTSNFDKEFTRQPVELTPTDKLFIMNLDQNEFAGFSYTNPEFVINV
Serine/threonine-protein kinase Chk2 (Homo sapiens), sequence (O96017 whole entry, the tested form may be a part): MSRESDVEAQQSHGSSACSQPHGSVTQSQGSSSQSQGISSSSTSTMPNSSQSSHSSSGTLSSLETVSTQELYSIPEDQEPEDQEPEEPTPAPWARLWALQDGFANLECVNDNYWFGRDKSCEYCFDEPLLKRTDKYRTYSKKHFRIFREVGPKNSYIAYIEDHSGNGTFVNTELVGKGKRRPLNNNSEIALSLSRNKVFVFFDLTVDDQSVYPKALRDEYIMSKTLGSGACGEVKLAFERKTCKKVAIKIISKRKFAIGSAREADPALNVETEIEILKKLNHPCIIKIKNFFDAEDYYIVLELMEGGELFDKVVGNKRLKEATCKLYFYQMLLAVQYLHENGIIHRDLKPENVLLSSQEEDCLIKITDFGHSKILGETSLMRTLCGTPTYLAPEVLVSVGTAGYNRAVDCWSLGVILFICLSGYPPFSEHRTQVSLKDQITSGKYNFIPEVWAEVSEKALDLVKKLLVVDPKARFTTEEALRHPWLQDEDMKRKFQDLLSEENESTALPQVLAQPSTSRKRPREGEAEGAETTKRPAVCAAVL
Dual specificity protein kinase CLK2 (Homo sapiens), sequence (P49760 whole entry, looked up, the tested form may be a part): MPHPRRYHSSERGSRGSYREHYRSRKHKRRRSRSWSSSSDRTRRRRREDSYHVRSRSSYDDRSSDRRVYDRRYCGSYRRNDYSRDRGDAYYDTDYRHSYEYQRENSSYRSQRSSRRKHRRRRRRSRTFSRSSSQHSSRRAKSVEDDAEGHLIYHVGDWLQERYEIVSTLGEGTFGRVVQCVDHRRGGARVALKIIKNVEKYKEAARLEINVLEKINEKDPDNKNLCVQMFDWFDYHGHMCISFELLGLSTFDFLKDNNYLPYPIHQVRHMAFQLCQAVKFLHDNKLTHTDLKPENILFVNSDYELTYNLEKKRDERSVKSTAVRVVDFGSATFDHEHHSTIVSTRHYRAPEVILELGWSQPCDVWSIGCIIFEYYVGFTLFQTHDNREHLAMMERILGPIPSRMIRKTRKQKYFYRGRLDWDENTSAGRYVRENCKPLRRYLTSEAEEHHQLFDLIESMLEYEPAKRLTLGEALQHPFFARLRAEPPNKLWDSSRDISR
Ephrin type-B receptor 4 (Homo sapiens), sequence (P54760 whole entry): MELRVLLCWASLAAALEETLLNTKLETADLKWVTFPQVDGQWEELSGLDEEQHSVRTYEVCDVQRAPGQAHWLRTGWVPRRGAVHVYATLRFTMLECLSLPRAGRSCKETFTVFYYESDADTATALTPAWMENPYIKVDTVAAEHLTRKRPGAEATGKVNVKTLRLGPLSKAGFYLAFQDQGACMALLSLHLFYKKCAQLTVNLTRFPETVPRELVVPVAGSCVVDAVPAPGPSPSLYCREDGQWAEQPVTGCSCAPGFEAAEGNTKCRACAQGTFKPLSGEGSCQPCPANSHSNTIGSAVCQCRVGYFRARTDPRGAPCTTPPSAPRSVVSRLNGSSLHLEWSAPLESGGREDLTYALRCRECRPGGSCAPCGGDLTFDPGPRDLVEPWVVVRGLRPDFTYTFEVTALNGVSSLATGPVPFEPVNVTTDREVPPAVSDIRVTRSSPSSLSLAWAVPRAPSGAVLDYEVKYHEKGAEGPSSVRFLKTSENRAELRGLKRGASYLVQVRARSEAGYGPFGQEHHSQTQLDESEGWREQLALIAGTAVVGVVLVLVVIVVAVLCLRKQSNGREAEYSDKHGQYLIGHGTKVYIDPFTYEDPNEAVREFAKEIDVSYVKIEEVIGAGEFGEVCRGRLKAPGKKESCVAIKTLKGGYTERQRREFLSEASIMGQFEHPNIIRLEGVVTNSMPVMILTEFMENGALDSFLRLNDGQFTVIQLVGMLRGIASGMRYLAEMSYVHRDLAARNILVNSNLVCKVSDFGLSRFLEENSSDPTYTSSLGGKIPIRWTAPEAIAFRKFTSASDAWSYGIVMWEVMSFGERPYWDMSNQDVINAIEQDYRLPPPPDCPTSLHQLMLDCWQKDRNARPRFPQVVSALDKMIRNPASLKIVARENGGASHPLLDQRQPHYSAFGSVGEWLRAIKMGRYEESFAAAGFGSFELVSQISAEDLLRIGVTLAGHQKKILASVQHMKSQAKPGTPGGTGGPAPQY
Phosphatidylinositol 4-kinase beta, sequence (Q9UBF8 2-816 limits assumed): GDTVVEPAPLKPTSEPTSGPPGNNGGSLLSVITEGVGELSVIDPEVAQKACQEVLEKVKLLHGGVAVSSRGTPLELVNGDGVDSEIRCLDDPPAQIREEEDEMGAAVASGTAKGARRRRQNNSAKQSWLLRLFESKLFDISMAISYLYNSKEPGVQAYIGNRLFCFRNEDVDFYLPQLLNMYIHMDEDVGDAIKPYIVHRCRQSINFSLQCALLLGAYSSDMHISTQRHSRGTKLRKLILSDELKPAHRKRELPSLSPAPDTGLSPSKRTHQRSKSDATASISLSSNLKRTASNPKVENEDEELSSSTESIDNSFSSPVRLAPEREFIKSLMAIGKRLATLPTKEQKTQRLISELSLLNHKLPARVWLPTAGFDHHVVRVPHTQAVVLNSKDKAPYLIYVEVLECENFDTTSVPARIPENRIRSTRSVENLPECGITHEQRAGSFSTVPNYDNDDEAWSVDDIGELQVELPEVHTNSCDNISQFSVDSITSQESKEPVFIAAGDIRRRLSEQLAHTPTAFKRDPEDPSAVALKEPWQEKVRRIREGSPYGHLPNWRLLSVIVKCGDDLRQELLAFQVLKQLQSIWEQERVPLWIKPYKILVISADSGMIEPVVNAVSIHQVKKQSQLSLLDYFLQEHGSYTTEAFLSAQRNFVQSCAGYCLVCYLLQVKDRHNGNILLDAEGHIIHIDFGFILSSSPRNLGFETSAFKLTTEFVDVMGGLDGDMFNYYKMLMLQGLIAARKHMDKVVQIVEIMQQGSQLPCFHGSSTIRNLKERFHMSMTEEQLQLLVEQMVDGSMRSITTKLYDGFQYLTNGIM
Mitogen-activated protein kinase 10 (Homo sapiens), sequence (P53779 whole entry, the tested form may be a part): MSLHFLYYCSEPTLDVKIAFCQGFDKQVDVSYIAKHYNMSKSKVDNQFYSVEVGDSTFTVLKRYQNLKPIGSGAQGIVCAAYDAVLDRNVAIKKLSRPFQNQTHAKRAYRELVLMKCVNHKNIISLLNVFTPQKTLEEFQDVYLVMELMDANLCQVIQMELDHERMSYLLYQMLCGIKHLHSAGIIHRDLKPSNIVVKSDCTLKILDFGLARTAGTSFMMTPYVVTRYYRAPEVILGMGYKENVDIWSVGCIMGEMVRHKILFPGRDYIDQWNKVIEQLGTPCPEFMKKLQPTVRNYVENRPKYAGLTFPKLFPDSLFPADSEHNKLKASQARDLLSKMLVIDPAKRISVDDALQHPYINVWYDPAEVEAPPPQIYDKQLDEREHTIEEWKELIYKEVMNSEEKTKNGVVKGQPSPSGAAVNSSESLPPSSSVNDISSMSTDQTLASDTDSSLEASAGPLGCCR
Phosphorylase b kinase gamma catalytic chain, skeletal muscle/heart isoform (Homo sapiens), sequence (Q16816 whole entry, looked up, the tested form may be a part, canonical isoform): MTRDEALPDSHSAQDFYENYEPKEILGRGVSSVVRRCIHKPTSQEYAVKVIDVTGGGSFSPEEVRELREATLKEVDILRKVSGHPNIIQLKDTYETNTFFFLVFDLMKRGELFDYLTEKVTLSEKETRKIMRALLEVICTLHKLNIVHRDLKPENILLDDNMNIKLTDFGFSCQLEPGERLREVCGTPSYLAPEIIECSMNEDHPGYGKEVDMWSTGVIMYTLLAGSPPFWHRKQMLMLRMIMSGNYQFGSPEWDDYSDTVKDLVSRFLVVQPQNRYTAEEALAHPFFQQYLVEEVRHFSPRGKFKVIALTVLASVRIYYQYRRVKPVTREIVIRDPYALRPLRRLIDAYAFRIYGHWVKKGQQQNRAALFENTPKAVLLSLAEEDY

Molecule `CC(C)(O)CNc1ncc(-c2ccnc(Nc3ccnc(Cl)c3)n2)c(CC2CC2)n1` has an Activity [1] of 117%, an Activity [2] of 108% and an Activity [3] of 105%. For the same molecule, the Activity [4] was 103%, the Activity [5] was 95% and the Activity [6] was 79%. The Activity [7] was 36%, the inhibition [8] was “inactive” and the inhibition [9] was “inactive”. For the same molecule, the inhibition [10] was “inactive”, the inhibition [11] was “inactive” and the inhibition [12] was “inactive”. For the same molecule, the inhibition [13] was “inactive”, the inhibition [14] was “inactive” and the inhibition [15] was “inactive”. The inhibition [16] was “inactive”, the inhibition [17] was “inactive” and the inhibition [18] was “inactive”. For the same molecule, the inhibition [19] was “inactive”, the inhibition [20] was “inactive” and the inhibition [21] was “inactive”. For the same molecule, the inhibition [22] was “inactive”, the inhibition [23] was “inactive” and the inhibition [24] was “inactive”. For the same molecule, the inhibition [25] was “inactive”.
